How the values were obtained:
CYP3A4 = test: Clinical drug-drug interaction study (Study BGB-3111-108), CYP3A4; format: in vivo; settings: clinical drug-drug interaction study BGB-3111-108
[1] = system: patients with B-cell malignancies; settings: 320 mg per day (160 mg twice a day); cited from earlier work
CYP2C19 = test: Clinical drug-drug interaction study (Study BGB-3111-108), CYP2C19; format: in vivo; settings: clinical drug-drug interaction study BGB-3111-108

C=CC(=O)N1CCC([C@@H]2CCNc3c(C(N)=O)c(-c4ccc(Oc5ccccc5)cc4)nn32)CC1 [zanubrutinib, (S)-7-(1-acryloylpiperidin-4-yl)-2-(4-phenoxyphenyl)-4,5,6,7-tetrahydropyrazolo[1,5-a]pyrimidine-3-carboxamide]
CYP3A4 induction (CYP3A4): mild inducer | efficacy in patients with B-cell malignancies [1]: efficacious | tolerability in patients with B-cell malignancies [1]: well tolerated | CYP2C19 induction (CYP2C19): mild inducer
